The target in one series is T1, JNK2 (Homo sapiens, UniProt P45984).
T1 construct: His6 (N)
Put plainly: c-Jun phosphorylation assay with His6-JNK2 and GST-c-Jun(1-79), γ-32P ATP. Type of series: biochemical. Conditions: assay consistently shows, despite variability. The procedure: For example, to 10 μL of 5-amino-anthra(9,1-cd)isothiazol-6-one in 20% DMSO/80% dilution buffer containing of 20 mM HEPES (pH 7.6), 0.1 mM EDTA, 2.5 mM magnesium chloride, 0.004% Triton×100, 2 μg/mL leupeptin, 20 mM β-glycerolphosphate, 0.1 mM sodium vanadate, and 2 mM DTT in water is added 30 μL of 50-200 ng His6-JNK2 in the same dilution buffer. The mixture is pre-incubated for 30 minutes at room temperature. Sixty μL of 10 μg GST-c-Jun(1-79) in assay buffer consisting of 20 mM HEPES (pH 7.6), 50 mM sodium chloride, 0.1 mM EDTA, 24 mM magnesium chloride, 1 mM DTT, 25 mM PNPP, 0.05% Triton×100, 11 μM ATP, and 0.5 μCi γ-32P ATP in water is added and the reaction is allowed to proceed for 1 hour at room temperature. The c-Jun phosphorylation is terminated by addition of 150 μL of 12.5% trichloroacetic acid. After 30 minutes, the precipitate is harvested onto a filter plate, diluted with 50 μL of the scintillation fluid and quantified by a counter. The IC50 values are calculated as the concentration of 5-amino-anthra(9,1-cd)isothiazol-6-one at which the c-Jun phosphorylation is reduced to 50% of the control value. Compounds that inhibit JNK2 preferably have an IC50 value ranging 0.01-10 μM in this assay. 5-Amino-anthra(9,1-cd)isothiazol-6-one has an IC50 according to this assay of 1 μM for JNK2 and 400 nM for JNK3.

Series [1] in a line: solubility in aqueous media. Type of series: physicochemical.

T1 sequence (P45984 whole entry): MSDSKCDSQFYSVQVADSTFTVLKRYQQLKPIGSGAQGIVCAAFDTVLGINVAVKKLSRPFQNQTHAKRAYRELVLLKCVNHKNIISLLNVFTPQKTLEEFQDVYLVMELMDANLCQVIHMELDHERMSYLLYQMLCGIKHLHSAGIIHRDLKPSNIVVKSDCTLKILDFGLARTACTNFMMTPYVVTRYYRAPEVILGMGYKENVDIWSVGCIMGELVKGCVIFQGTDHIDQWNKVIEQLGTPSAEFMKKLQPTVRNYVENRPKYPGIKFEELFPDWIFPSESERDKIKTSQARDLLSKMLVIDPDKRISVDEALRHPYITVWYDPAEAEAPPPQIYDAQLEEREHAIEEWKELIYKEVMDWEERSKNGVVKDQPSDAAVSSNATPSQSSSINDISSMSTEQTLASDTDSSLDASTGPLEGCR

Regarding `Nc1ccc2snc3c2c1C(=O)c1ccccc1-3` [5-amino-anthra(9,1-cd)isothiazol-6-one], at JNK2, the “selectivity of JNK2 inhibition” value is “selectively inhibits JNK2”. In series [1], the “solubility in aqueous media” value is “limited solubility”.

These data come from patent US8501812B2, “Therapeutic methods for type I diabetes” (University of Massachusetts, priority 2005, dated 2013).
